# Read-outs that look alike come from different tables or passages of the source.
# Tests used:
# [1] = system: MDBK cells; experiment: Cytotoxicity in MDBK cells; format: cell-based
# Description: (§1) Cytotoxicity testing can be carried out according to standard methods. MDBK, PBM, HepG2, Huh7 and Vero cells were used. […]. […] Afterwards the plates containing the dye are read at 490 nm. Each assay was done in triplicate. Such methodologies are well described and available from the manufacturer (Promega).
# [2] = system: BVDV; experiment: BVDV real time RT-PCR antiviral assay in MDBK cells; format: cell-based, Bovine viral diarrhea virus (BVDV), strain NADL; conditions: for virus production / viral RNA versus negative control / max log reduction Viral Load: MDBK cells; for virus production / viral RNA versus negative control: MOI 0.02, 22 hours, real time RT-PCR; for Selectivity Index (24 hrs/24 hrs) CC50/EC90: MDBK CC50 24 hrs / antiviral EC90 24 hrs
# Procedure: As one illustration of this method, in the case of BVDV in MDBK cells, in a first step, viral RNA is isolated from 140 μL of the cell culture supernatant by means of a commercially available column (Viral RNA extraction kit, QiaGen, CA). The viral RNA is then eluted from the column to yield a total volume of 60 μL, and subsequently amplified with a quantitative RT-PCR protocol using a suitable primer for the BVDV NADL strain. A quenched fluorescent probe molecule is hybridized to the BVDV DNA, which then undergoes exonucleolytic degradation resulting in a detectable fluorescent signal. Therefore, the RT-PCR amplified DNA was detected in real time by monitoring the presence of fluorescence signals. The TaqMan probe molecule (5′ 6-fam-[…]-tamara 3′ [Sequence ID No. 7] and primers (sense: 5′-[…]-3′ [Sequence ID No. 8]; and antisense: 5′-[…]-3′ [Sequence ID No. 9]) were designed with the aid of the Primer Express software (PE-Applied Biosystems) to be complementary to the BVDV NADL NS5B region. A total of 10 μL of RNA was analyzed in a 50 μL RT-PCR mixture. Reagents and conditions used in quantitative PCR were purchased from PE-Applied Biosystems. The standard curve that was created using the undiluted inoculum virus ranged from 6000 plaque forming units (PFU) to 0.6 PFU per RT-PCR mixture.
# Maldin-Darby bovine kidney (MDBK) cells were grown and maintained in a modified eagle medium (DMEM/F12; GibcoBRL), supplemented with 10% heat inactivated horse serum at 37° C. in a humidified, 5% CO2, incubator.
# Bovine viral diarrhea virus (BVDV), strain NADL, causes a cytopathogenic effect (CPE) after infection of these cells.
# Cells that were not treated with a test compound were considered a negative control, while ribavirin served as a positive control. Viral RNA was extracted and analyzed by real time RT-PCR.
# Controls were Ribavirin and the polyoxymetalate HPA-023 in these experiments.
# [3] = target: human IMPDH; experiment: IMPDH inhibition (Ki); format: biochemical
# [4] = Cytotoxicity in MDBK cells; format: cell-based
# Description: as §1
# [5] = system: IMPDH; conditions: literature (WO 95/22538); cited from earlier work
# [6] = Cytotoxicity in CEM cells; conditions: human, CEM cells
# [7] = in vitro; format: cell-based
# Description: as §1
# [8] = Toxicity of C2-MAD in Balb/c mice (body weight); format: in vivo; conditions: Balb/c mice, 10, 30 and 60 mg/kg/day, ten day treatment, versus water
# Description: The results of this screening are illustrated in FIG. 4.
# [9] = Cytotoxicity in Vero cells; format: cell-based; conditions: African green monkey
# Procedure: (§2) Cytotoxicity testing can be carried out according to standard methods. MDBK, PBM, HepG2, Huh7 and Vero cells were used. […]. After a three day-incubation, cell viability and mitochondrial activity are measured by adding the MTS-dye (Promega), followed by a 3 hours incubation. Afterwards the plates containing the dye are read at 490 nm. Each assay was done in triplicate. Such methodologies are well described and available from the manufacturer (Promega).
# [10] = system: BVDV; experiment: BVDV real time RT-PCR antiviral assay in MDBK cells; format: cell-based, Bovine viral diarrhea virus (BVDV), strain NADL; conditions: dose-response, 24 hours post-infection
# [11] = Cytotoxicity in HepG2 cells; format: cell-based; conditions: human
# Procedure: as §2
# [12] = system: CEM; experiment: Cytotoxicity in CEM cells; conditions: read-out: CEM 7 days CC50; 7 days
# [13] = system: PBMC; experiment: in vitro; format: cell-based; conditions: 7 days
# Description: as §1
# [14] = renal transplanted patients, oral; cited from earlier work
# [15] = BVDV, 24 hrs, read-out: Antiviral (24 hrs) EC90
# [16] = BVDV real time RT-PCR, after 22 hours, tested at 40 μM
# [17] = Bovine viral diarrhea virus isolates and strains, MDBK, 22 h
# [18] = Bovine viral diarrhea virus isolates and strains, MDBK, 24 h, read-out: Antiviral (24 hrs) EC90
# [19] = 7 days, read-out: PBMC 7 days CC50
# [20] = 24 hrs, read-out: MDBK (24 hrs) CC50
# [21] = Table 2, 3 days, read-out: MDBK (3 Days) CC50
structure (smiles),measurement,setting,value
COc1c(C)c2c(c(O)c1C/C=C(\C)CCCOP(=O)(O)CP(=O)(O)OC[C@H]1O[C@@H](n3cnc4c(N)ncnc43)[C@H](O)[C@@H]1O)C(=O)OC2 [C6-MAD],CC50,[1],> 100 µM
same,EC90,[2]; [15],> 100 µM
same,virus production / viral RNA versus negative control,[2],non-active
same,Ki,"[3]; Table 2, read-out: IMPDH Ki",0.3 µM
NC(=O)c1cncc([C@H]2O[C@H](CO)[C@@H](O)[C@H]2O)c1,melting point,,210 to 212 °C
COc1c(C)c2c(c(O)c1CC=O)C(=O)OC2 [C2-MPAld],CC50,[1],> 100 µM
same,EC90,[2]; [15],> 100 µM
same,virus production / viral RNA versus negative control,[2],non-active
"COc1c(C)c2c(c(O)c1C/C=C(\C)CCC(=O)O)C(=O)OC2 [Mycophenolic Acid (MPA), Mycophenolic Acid]",CC50 at 24 h,"[4]; bovine, MDBK cells",> 100 µM
same,CC50 at 3 days,"[4]; bovine, MDBK cells, Table 1",2 µM
same,CC50 at 3 days,"[4]; bovine, MDBK cells, Table 2",2 µM
same,max log reduction Viral Load,[2]; [16],>2 (40 μM) log
same,EC90,[2]; [17],1 µM
same,EC90,[2]; [18],< 1 µM
same,virus production / viral RNA versus negative control,[2],almost complete absence of viral RNA
same,CC50 at 7 days,[6],0.05 µM
same,CC50 at 7 days,[7],75.4 µM
N#Cc1cncc([C@@H]2O[C@H](CO)[C@@H](O)[C@H]2O)c1,melting point,,169 to 171 °C
COc1c(C)c2c(c(O)c1CCOP(=O)(O)CP(=O)(O)OC[C@H]1O[C@@H](n3cnc4c(N)ncnc43)C(O)[C@H]1O)C(=O)OC2 (stereo partly drawn) [C2-MAD],CC50 at 24 h,[4],> 100 µM
same,CC50 at 3 days,[4]; Table 1,50 µM
same,CC50 at 3 days,[4]; Table 2,9 µM
same,toxic effects: weight gain or loss (FIG. 4),[8],does not contribute to significant weight gain or loss
same,max log reduction Viral Load,[2]; [16],1.9 (40 μM) log
same,CC50 at 7 days,[6],17.7 µM
same,CC50 at 7 days,[7]; [19],45.9 µM
NC(=O)c1cccc([C@@H]2O[C@H](COP(=O)(O)CP(=O)(O)OCC3OC(n4cnc5c(N)ncnc54)C(F)C3O)[C@@H](O)[C@H]2O)c1 (stereo partly drawn) [F-ara-CH2-BAD],CC50,[1]; [20],> 100 µM
same,CC50,[1]; [21],> 100 µM
same,EC90,[2]; [15],> 100 µM
same,virus production / viral RNA versus negative control,[2],non-active
same,Ki,"[3]; Table 2, read-out: IMPDH Ki",175 µM
COC(=O)CC/C(C)=C/Cc1c(O)c2c(c(C)c1OC)COC2=O [MPA-O-Me],CC50,[1]; [20],> 100 µM
same,CC50,[1]; [21],0.4 µM
same,max log reduction Viral Load,"[2]; BVDV real time RT-PCR, after 22 hours, tested at 100 μM",3.32 (100 μM) log
same,EC90,[2]; [15],< 1 µM
same,Ki,"[3]; Table 2, read-out: IMPDH Ki",0.5 µM
NC(=O)c1ncn([C@@H]2O[C@H](CO)[C@@H](O)[C@H]2O)n1 [Ribavirin],CC50 at 24 h,[4],> 100 µM
same,CC50 at 3 days,[4]; Table 1,4 µM
same,CC50 at 3 days,[4]; Table 2,5 µM
same,CC50 at 3 days,[9],> 100 µM
same,max log reduction Viral Load,[2]; [16],>2 (40 μM) log
same,EC50,[2]; [17],0.7 µM
same,EC90,[2]; [17],5 µM
same,EC90,[2]; [18],2 µM
same,Selectivity Index (24 hrs/24 hrs) CC50/EC90,[2],5
same,virus production / viral RNA versus negative control,[2],almost complete absence of viral RNA
same,CC50 at 7 days,[6],75 µM
same,"intracellular viral RNA reduction, relative effectiveness (FIG. 9)",[10],more effective than C2-MAD
same,CC50 at 3 days,[11],80 µM
same,Ki,"[3]; Table 2, read-out: IMPDH Ki",0.2 µM
same,CC50 at 7 days,[7]; [19],> 100 µM
NC(=O)c1csc([C@@H]2O[C@H](CO)[C@@H](O)[C@H]2O)n1 [Tiazofurin],CC50 at 24 h,[4],> 100 µM
same,CC50 at 3 days,[4]; Table 1,25 µM
same,CC50 at 3 days,[4]; Table 2,25 µM
same,max log reduction Viral Load,[2]; [16],>2 (40 μM) log
same,EC90,[2]; [17],30 µM
same,EC90,[2]; [18],7 µM
same,Selectivity Index (24 hrs/24 hrs) CC50/EC90,[2],14
same,virus production / viral RNA versus negative control,[2],almost complete absence of viral RNA
same,CC50 at 7 days,[6],73.4 µM
same,CC50 at 3 days,[11],> 100 µM
same,Ki,"[3]; Table 2, read-out: IMPDH Ki",0.11 µM
same,CC50 at 7 days,[7]; [19],79.5 µM
NC(=O)c1ncn([C@@H]2O[C@H](CO)[C@@H](O)[C@H]2O)c1O [Mizoribine],CC50 at 24 h,[4],> 100 µM
same,CC50 at 3 days,[4]; Table 2,> 100 µM
same,EC90,"[2]; Bovine viral diarrhea virus isolates and strains, MDBK",> 100 µM
same,EC90,[2]; [18],> 100 µM
same,Selectivity Index (24 hrs/24 hrs) CC50/EC90,[2],1
same,virus production / viral RNA versus negative control,[2],non-active
same,Ki,"[3]; human IMPDH, read-out: Ki",0.004 µM
NC(=O)c1ncn([C@H]2O[C@@H](CO)[C@H](O)[C@@H]2O)n1 [L-Ribavirin],CC50,[1]; [20],> 100 µM
same,CC50,[1]; [21],> 100 µM
same,EC90,[2]; [15],> 100 µM
"COc1c(C)c2c(c(O)c1CCO)C(=O)OC2 [C2-MPAlcohol, 6-(2-hydroxyethyl)-7-hydroxy-5-methoxy-4-methylphthalan-1-one]",CC50,[1]; [20],> 100 µM
same,CC50,"[1]; Table 1, 3 days, read-out: MDBK 3 days CC50",7 µM
same,CC50,[1]; [21],7 µM
same,max log reduction Viral Load,[2]; [16],1.96 (40 μM) log
same,EC90,"[2]; BVDV real time RT-PCR, after 22 hours, 1-log reduction in viral production, read-out: EC90",40 µM
same,EC90,[2]; [15],40 µM
same,CC50,[12],91 µM
same,CC50,[13],> 100 µM
COc1c(C)c2c(c(O)c1C/C=C(\C)C=O)C(=O)OC2 [C4-MPAld],CC50,[1],> 100 µM
same,EC90,[2]; [15],> 100 µM
same,virus production / viral RNA versus negative control,[2],non-active
NC(=O)c1csc(C2OC(COP(=O)(O)CP(=O)(O)OCC3OC(n4cnc5c(N)ncnc54)C(O)C3O)C(O)C2O)n1 (stereo not drawn) [β-CH2-TAD],CC50 at 24 h,"[4]; bovine, MDBK cells",> 100 µM
same,CC50 at 3 days,"[4]; bovine, MDBK cells, Table 1",70 µM
same,CC50 at 3 days,"[4]; bovine, MDBK cells, Table 2",70 µM
same,max log reduction Viral Load,[2]; [16],0.94 (40 μM) log
same,EC90,[2]; [18],> 100 µM
same,Selectivity Index (24 hrs/24 hrs) CC50/EC90,[2],1
same,CC50 at 7 days,[6],47.8 µM
same,Ki,"[3]; Table 2, read-out: IMPDH Ki",0.11 µM
same,CC50 at 7 days,[7],> 100 µM
NC(=O)c1cccc(C2OC(CO)C(O)C2O)c1 (stereo not drawn) [Benzamide Riboside],CC50 at 24 h,"[4]; bovine, MDBK cells",13 µM
same,CC50 at 3 days,"[4]; bovine, MDBK cells, Table 1",4 µM
same,CC50 at 3 days,"[4]; bovine, MDBK cells, Table 2",3 µM
same,max log reduction Viral Load,[2]; [16],>2 (40 μM) log
same,EC90,[2]; [17],3 µM
same,EC90,[2]; [18],3 µM
same,Selectivity Index (24 hrs/24 hrs) CC50/EC90,[2],4
same,CC50 at 3 days,[11]; HepG2 cells,8 µM
same,Ki,"[3]; Table 2, read-out: IMPDH Ki",0.66 µM
same,CC50,[7],< 17 µM
"COc1c(C)c2c(c(O)c1C/C=C(\C)CCC(=O)OCCN1CCOCC1)C(=O)OC2 [MMF, mycophenolate mofetil]",MPA Tmax,[14],48 min
Nc1nc2c(ncn2[C@@H]2O[C@H](CO)[C@@H](O)[C@H]2O)c(=O)[nH]1 [guanosine],virus production / viral RNA versus negative control,[2],non-active
